Results published in patent US20170348213A1, “Oral Care Composition” (Colgate-Palmolive Company, priority 2014, published 2017).

Assays:
oral mucosal cells = assay: Cell irritating effect on oral mucosal cells (Janus Green B staining, optical microscope); format: cell-based; conditions: aqueous solution
Procedure: Aqueous solutions of different concentrations of sodium […] (SLS) and sodium methyl cocoyl taurate (SMCT) were prepared. The solutions were used to challenge oral mucosal cells. Treated cells were stained with Janus Green B and morphological changes were observed using an optical microscope to determine whether or not the cells had become irritated or remained intact. Cells were identified as normal if the cells were in tact, the cell wall was smooth, the color of the cell core was clear/dark, and if organelles could be identified. Cells were identified as irritated if the cells could not be clearly defined with a blurring of the cell wall, if there was crimping of the cell, if the color of the cell core and plasma is lighter than observed for an intact cell, and if organelles could not be identified. […]

[1] = Antioxidant activity, LPO-CC kit (Kamiya Biomedical Company); format: biochemical; conditions: agent at 1% in ethanol
Procedure: The antioxidant activity of rutin was tested using an LPO-CC kit (Kamiya Biomedical Company), and compared to that of vitamin E. (The agents were tested in an amount of 1% in ethanol). The lower the optical density, the better the antioxidant capacity. The higher the percentage cumeme hydroperoxide reduction, the better the antioxidant capacity. The antioxidant efficacy of the formulations was also tested using the methods described in Example 5. The results are illustrated in Table 9a and 9b.

Row | Substance | Cell irritating effects of aqueous surfactant solutions: Results (oral mucosal cells; 0.48 % active weight surfactant) | Cell irritating effects of aqueous surfactant solutions: Results (oral mucosal cells; 1.40 % active weight surfactant) | Cell irritating effects of aqueous surfactant solutions: Results (oral mucosal cells; 1.71 % active weight surfactant) | Cell irritating effects of aqueous surfactant solutions: Results (oral mucosal cells; 2.20 % active weight surfactant) | % reduction of cumeme hydroperoxide ([1]; higher = better antioxidant capacity) [%] | Optical Density at 675 nm ([1]; lower optical density = better antioxidant capacity)
1 | sodium lauryl ether sulfate [SLS] | No cell irritation | Cells irritated | Cells irritated | Cells irritated | – | –
2 | vitamin E | – | – | – | – | 50.4719 | 0.2204
